One may read the inhibition as the drop in the measured response relative to a control, in per cent. Read a high inhibition as a strong effect.

Here are results for 14 compounds from EP4667466A1, “PROTAC DEGRADERS OF MLLT1 AND/OR MLLT3” (priority 2024, dated 2025).

Some results are limits rather than exact numbers.

In this experiment the target is T1, MLLT1 (Homo sapiens, UniProt Q03111).
T1 construct: endogenous in cells; host or cells: MV4-11 (ATCC CRL-9591)
T1 sequence (Q03111 1-559): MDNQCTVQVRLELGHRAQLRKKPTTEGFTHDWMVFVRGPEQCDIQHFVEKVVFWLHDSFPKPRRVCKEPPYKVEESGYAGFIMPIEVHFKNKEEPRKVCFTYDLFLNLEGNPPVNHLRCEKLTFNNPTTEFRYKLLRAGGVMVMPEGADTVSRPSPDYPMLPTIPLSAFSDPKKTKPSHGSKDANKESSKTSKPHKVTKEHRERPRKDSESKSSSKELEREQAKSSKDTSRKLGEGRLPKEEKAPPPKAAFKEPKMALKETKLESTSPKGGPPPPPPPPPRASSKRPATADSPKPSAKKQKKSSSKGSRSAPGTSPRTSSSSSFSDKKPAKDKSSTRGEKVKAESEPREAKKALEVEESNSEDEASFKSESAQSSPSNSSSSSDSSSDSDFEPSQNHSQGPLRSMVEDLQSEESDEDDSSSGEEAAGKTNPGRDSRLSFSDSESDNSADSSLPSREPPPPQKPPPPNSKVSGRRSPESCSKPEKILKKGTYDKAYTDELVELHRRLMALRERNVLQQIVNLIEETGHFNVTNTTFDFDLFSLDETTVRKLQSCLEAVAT
Nature of the experiment: MLLT1 degradation assay (JESS automated chemiluminescent detection) in MV4-11 cells. It counts as cell-based. The following applies: 24h, with respect to DMSO control. Here is the method:
MLLT1 degradation efficacy of compounds was tested in an automated chemiluminescent detection system (JESS, Cat# 004-650). MV4-11 (#CRL-9591, ATCC) cells were seeded at a density of 1.2 million cells/well in a non-treated 6-well cell culture plate in 2.4 mL of complete medium (IMDM + 10% FBS + 1X Penicillin-Streptomycin). 10 mM DMSO stocks were prepared, and cells were treated with three concentrations of test compounds viz. 1000, 100 and 10 nM at a final DMSO concentration of 0.1% and incubated for 24h at 37°C, 5% CO2. Post incubation, cells were centrifuged, washed with HBSS and lysed in 70 uL of RIPA buffer supplemented with Protease inhibitors (sc-24948; Santa Cruz). Subsequently, protein estimation was done using BCA protein assay kit (23225; Pierce). 4 ug protein lysate (4 uL of 1ug/uL lysate) was loaded into each well of the JESS cartridge (SM-WO01; Bio-techne) and the JESS run was performed using 1:900 dilution of anti-human MLLT1 antibody (14893; Cell signaling technology) and 1:1200 dilution of anti-human GAPDH antibody (2118; Cell signaling technology) with anti-rabbit secondary detection module (DM-001; Bio-Techne). Post run, data were analysed using "Compass for SW" software for chemiluminescent detection. The peak area for each band was used for the calculation of MLLT1 degradation with respect to DMSO control. Data is shown as "MLLT1 % degradation". Category A: A ≥ 75% degradation Category B: 50% ≤ B < 75% degradation Category C: 25% ≤ C < 50% degradation Category D: D < 25% degradation Table 1

Compound `Cc1nn(CCCCCCCC#Cc2cccc(C(=O)N[C@H]3CCC(=O)NC3=O)n2)c2cc(C(=O)Nc3cc4[nH]c([C@H]5CCCN5C)cc4cn3)ccc12` [Example 42, 1-(9-(6-(((S)-2,6-dioxopiperidin-3-yl)carbamoyl)pyridin-2-yl)non-8-yn-1-yl)-3-methyl-N-(2-((R)-1-methylpyrrolidin-2-yl)-1H-pyrrolo [3,2-c]pyridin-6-yl)-1H-indazole-6-carboxamide] returned an inhibition at 0.01 µM of 50 to 75%, an inhibition at 0.1 µM not below 75% and an inhibition at 1 µM not below 75%.
For the compound `Cc1nn(CCCCCCC2CCN(c3cccc(C(=O)N[C@H]4CCC(=O)NC4=O)n3)CC2)c2cc(C(=O)Nc3cc4[nH]c([C@H]5CCCN5C)cc4cn3)ccc12` [Example 73, 1-(6-(1-(6-(((S)-2,6-dioxopiperidin-3-yl)carbamoyl)pyridin-2-yl)piperidin-4-yl)hexyl)-3-methyl-N-(2-((R)-1-methylpyrrolidin-2-yl)-1H-pyrrolo[3,2-c]pyridin-6-yl)-1H-indazole-6-carboxamide], the inhibition at 0.01 µM fell in the range of 50 to 75%, the inhibition at 0.1 µM is not below 75% and the inhibition at 1 µM is not below 75%.
`Cc1nn(CCCCCCCC#Cc2cc3c(cc2F)C(=O)N(C2CCC(=O)NC2=O)C3)c2cc(C(=O)Nc3cc4[nH]c([C@H]5CCCN5C)cc4cn3)ccc12` (stereo partly drawn) [Example 60, 1-(9-(2-(2,6-dioxopiperidin-3-yl)-6-fluoro-1-oxoisoindolin-5-yl)non-8-yn-1-yl)-3-methyl-N-(2-((R)-1-methylpyrrolidin-2-yl)-1H-pyrrolo[3,2-c]pyridin-6-yl)-1H-indazole-6-carboxamide] showed an inhibition at 0.01 µM of 25 to 50%, an inhibition at 0.1 µM of 50 to 75% and an inhibition at 1 µM not below 75%.
`Cc1nn(CCCCCCCC#Cc2cccc3c2CN(C2CCC(=O)NC2=O)C3=O)c2cc(C(=O)Nc3cc4[nH]c([C@H]5CCCN5C)cc4cn3)c(F)cc12` (stereo partly drawn) [Example 58, 1-(9-(2-(2,6-dioxopiperidin-3-yl)-1-oxoisoindolin-4-yl)non-8-yn-1-yl)-5-fluoro-3-methyl-N-(2-((R)-1-methylpyrrolidin-2-yl)-1H-pyrrolo[3,2-c]pyridin-6-yl)-1H-indazole-6-carboxamide]: the inhibition at 0.01 µM is not below 75%, the inhibition at 0.1 µM was not below 75% and the inhibition at 1 µM is not below 75%.
The compound `Cc1nn(CCCCCCCCNc2cccc3c2C(=O)N(C2CCC(=O)NC2=O)C3=O)c2cc(C(=O)Nc3cc4[nH]c(C5CCCN5C)cc4cn3)ccc12` (racemic) [Example 2, rac-1-(8-{[2-(2,6-dioxopiperidin-3-yl)-1,3-dioxoisoindol-4-yl]amino}octyl)-3-methyl-N-[2-(1-methylpyrrolidin-2-yl)-1H-pyrrolo[3,2-c]pyridin-6-yl]indazole-6-carboxamide] yielded an inhibition at 0.01 µM of 50 to 75%, an inhibition at 0.1 µM not below 75% and an inhibition at 1 µM not below 75%.
Turning to `Cc1nn(C2CCN(CC#Cc3cccc4c3CN(C3CCC(=O)NC3=O)C4=O)CC2)c2cc(C(=O)Nc3cc4[nH]c([C@H]5CCCN5C)cc4cn3)ccc12` (stereo partly drawn) [Example 68, 1-(1-(3-(2-(2,6-dioxopiperidin-3-yl)-1-oxoisoindolin-4-yl)prop-2-yn-1-yl)piperidin-4-yl)-3-methyl-N-(2-((R)-1-methylpyrrolidin-2-yl)-1H-pyrrolo[3,2-c]pyridin-6-yl)-1H-indazole-6-carboxamide], the inhibition at 0.01 µM was not below 75%, the inhibition at 0.1 µM was not below 75% and the inhibition at 1 µM lay in the range of 50 to 75%.
As to `Cc1nn(CCCCCCCC#Cc2ccc3c(c2)n(C)c(=O)n3C2CCC(=O)NC2=O)c2cc(C(=O)Nc3cc4[nH]c([C@H]5CCCN5C)cc4cn3)ccc12` (stereo partly drawn) [Example 39, 1-(9-(1-(2,6-dioxopiperidin-3-yl)-3-methyl-2-oxo-2,3-dihydro-1H benzo[d]imidazol-5-yl)non-8-yn-1-yl)-3-methyl-N-(2-((R)-1-methylpyrrolidin-2-yl)-1H-pyrrolo[3,2-c]pyridin-6-yl)-1H-indazole-6-carboxamide], the inhibition at 0.01 µM is not below 75%, the inhibition at 0.1 µM is not below 75% and the inhibition at 1 µM is not below 75%.
Regarding `CN1CCC[C@@H]1c1cc2cnc(NC(=O)c3ccc4cnn(CCCCCCCC#Cc5cccc6c5CN(C5CCC(=O)NC5=O)C6=O)c4c3)cc2[nH]1` (stereo partly drawn) [Example 55, 1-(9-(2-(2,6-dioxopiperidin-3-yl)-1-oxoisoindolin-4-yl)non-8-yn-1-yl)-N-(2-((R)-1-methylpyrrolidin-2-yl)-1H-pyrrol[3,2-c]pyridin-6-yl)-1H-indazole-6-carboxamide], the inhibition at 0.01 µM was in the range of 50 to 75%, the inhibition at 0.1 µM was not below 75% and the inhibition at 1 µM was not below 75%.
As to `Cc1nn(CCCCCN2CCN(c3cccc4c3C(=O)N(C3CCC(=O)NC3=O)C4=O)CC2)c2cc(C(=O)Nc3cc4[nH]c([C@H]5CCCN5C)cc4cn3)ccc12` (stereo partly drawn) [Example 47, 1-(5-(4-(2-(2,6-dioxopiperidin-3-yl)-1,3-dioxoisoindolin-4-yl)piperazin-1-yl)pentyl)-3-methyl-N-(2-((R)-1-methylpyrrolidin-2-yl)-1H-pyrrolo[3,2-c]pyridin-6-yl)-1H-indazole-6-carboxamide], the inhibition at 0.01 µM is less than 25%, the inhibition at 0.1 µM was less than 25% and the inhibition at 1 µM is 50 to 75%.
Compound `Cc1nn(CCCCCCCC#Cc2cccc(C(=O)N[C@H]3CCC(=O)NC3=O)c2F)c2cc(C(=O)Nc3cc4[nH]c([C@H]5CCCN5C)cc4cn3)ccc12` [Example 51, 1-(9-(3-(((S)-2,6-dioxopiperidin-3-yl)carbamoyl)-2-fluorophenyl)non-8-yn-1-yl)-3-methyl-N-(2-((R)-1-methylpyrrolidin-2-yl)-1H-pyrrolo[3,2-c]pyridin-6-yl)-1H-indazole-6-carboxamide] displayed an inhibition at 0.01 µM of 25 to 50%, an inhibition at 0.1 µM of 50 to 75% and an inhibition at 1 µM not below 75%.
In turn, `Cc1nn(CCCCN2CCN(c3ccc4c(c3)C(=O)N(C3CCC(=O)NC3=O)C4=O)CC2)c2cc(C(=O)Nc3cc4[nH]c([C@@H]5CCCN5C)cc4cn3)ccc12` (stereo partly drawn) [Example 20, 1-(4-{4-[2-(2,6-dioxopiperidin-3-yl)-1,3-dioxoisoindol-5-yl]piperazin-1-yl}butyl)-3-methyl-N-{2-[(2S)-1-methylpyrrolidin-2-yl]-1H-pyrrolo[3,2-c]pyridin-6-yl}indazole-6-carboxamide] gave an inhibition at 0.01 µM of 25 to 50%, an inhibition at 0.1 µM of 25 to 50% and an inhibition at 1 µM not below 75%.
`Cc1c(C#CCCCCCn2nc(C)c3ccc(C(=O)Nc4cc5[nH]c([C@H]6CCCN6C)cc5cn4)cc32)cccc1C(=O)NC1CCC(=O)NC1=O` (stereo partly drawn) [Example 35, 1-(7-(3-((2,6-dioxopiperidin-3-yl)carbamoyl)-2-methylphenyl)hept-6-yn-1-yl)-3-methyl-N-(2-((R)-1-methylpyrrolidin-2-yl)-1H-pyrrolo[3,2-c]pyridin-6-yl)-1H-indazole-6-carboxamide] yielded an inhibition at 0.01 µM of 25 to 50%, an inhibition at 0.1 µM of less than 25% and an inhibition at 1 µM of 50 to 75%.
In the same order, the values of `Cc1nn(CCCCCCCC#Cc2cccc3c2CN(C2CCC(=O)NC2=O)C3=O)c2cc(C(=O)Nc3cc4[nH]c([C@H]5CCCN5C)c(Cl)c4cn3)ccc12` (stereo partly drawn) [Example 53, N-(3-chloro-2-((R)-1-methylpyrrolidin-2-yl)-1H-pyrrolo[3,2-c]pyridin-6-yl)-1-(9-(2-(2,6-dioxopiperidin-3-yl)-1-oxoisoindolin-4-yl)non-8-yn-1-yl)-3-methyl-1H-indazole-6-carboxamide] are not below 75%, not below 75% and not below 75%.
Take `Cc1nn(CCOCCN2CCN(c3cc4c(cc3F)C(=O)N(C3CCC(=O)NC3=O)C4=O)CC2)c2cc(C(=O)Nc3cc4[nH]c([C@H]5CCCN5C)cc4cn3)ccc12` (stereo partly drawn) [Example 24, 1-(2-(2-(4-(2-(2,6-dioxopiperidin-3-yl)-6-fluoro-1,3-dioxoisoindolin-5-yl)piperazin-1-yl)ethoxy)ethyl)-3-methyl-N-(2-((R)-1-methylpyrrolidin-2-yl)-1H-pyrrolo[3,2-c]pyridin-6-yl)-1H-indazole-6-carboxamide]: the inhibition at 0.1 µM lay in the range of 50 to 75% and the inhibition at 1 µM is not below 75%.
